Data taken from patent US11666558B2, “Methods of treating intraocular pressure with activators of Tie-2” (EyePoint Pharmaceuticals, Inc., priority 2015, dated 2023).
Structures can show the parent of a compound that is named as a salt. Where two headings read alike, the source gives them in different places.

Columns and labels:
[1] = Ophthalmic examination (slit-lamp biomicroscopy, modified McDonald-Shadduck Scoring System) after repeated dosing; format: in vivo, New Zealand White rabbits
Description: Prior to placement on study, each animal underwent an ophthalmic examination (slitlamp biomicroscopy and indirect ophthalmoscopy). Ocular findings were scored according to a modified McDonald-Shadduck Scoring System and recorded on a standardized data sheet. The acceptance criteria for placement on study were scores of “0” for all variables.
Ophthalmic examination (slit-lamp biomicroscopy only) was performed at baseline (prior to the start of dosing) and on Days 1, 4, and 8. Ocular findings were scored according to a modified McDonald-Shadduck Scoring System. A slit lamp was used to observe conjunctival discharge, […], […], the cornea, the surface area of cornea involvement, pannus, pupillary response, aqueous flare, cellular flare, iris involvement, and the lens. An indirect ophthalmoscope was used to observe the vitreous, vitral hemorrhage, retinal detachment, retinal hemorrhage, and choroidal/retinal inflammation. Animals were prepared for observation by using a solution (atropine, tropicaminde, or phenylephrine) to dilate the pupils.
Conjunctival discharge was defined as a whitish gray precipitate from the eye. Scoring was as follows.
Conjunctival congestion causes the blood vessels of the eye to become enlarged. Scoring was as follows.
Conjunctival swelling, defined as swelling of the conjunctiva, was scored as follows.

[2] = Plasma concentrations and pharmacokinetic parameters after topical ocular, subcutaneous and intravitreal administration; format: in vivo, New Zealand White rabbits; settings: for AUC(0-t): read-out: AUClast (± SE); for concentration at 0.5 hr / concentration at 0.5 h: 0.50 hr
Description: To measure the concentration of Compound 1 in plasma and ocular tissues following topical ocular, subcutaneous, and intravitreal administration, New Zealand White rabbits were administered Compound 1, and plasma and ocular samples were collected at pre-determined time points. Compound 1 formulations were prepared fresh on each day of dosing.
New Zealand White rabbits weighing 2.5 to 3.5 kg were used on this study. Rabbits were housed one per cage. Animals were not fasted and only healthy animals with no ocular illness were used. Two rabbits per group were sacrificed at each of four ocular tissue sampling time points for a total of eight rabbits per group.
Animals were anesthetized for ocular (topical) and intravitreal dosing following the 12IA7 IACUC protocol. Each rabbit received a bolus dose of test formulation either via topical ocular administration 3 times daily on Days 1 and 2 (at 0, 6, and 12 hours), and once on Day 3 (at 0 hours) into both eyes; via intravitreal administration into both eyes once on Day 1 (at 0 hours); or via subcutaneous administration 2 times daily on Days 1 and 2 (at 0 and 8 hours) and once daily on Day 3 (at 0 hours). Doses were given within an approximately 1 hour window each day where applicable.
Each blood sample was collected on Day 3 post dose at pre-determined time points from the rabbits via an ear vessel and placed into chilled polypropylene tubes containing sodium heparin as an anticoagulant. Samples were spun by centrifuge at 4° C. and 3,000×g for 5 minutes. Samples were maintained chilled throughout processing. Each plasma sample was placed on dry ice and stored in a freezer at −60° C. to −80° C. pending bioanalysis.
An LC-MS/MS method was developed for the determination of Compound 1 in rabbit aqueous tissues (plasma, aqueous and vitreous humor) and solid ocular tissue samples. A pre-study standard curve was analyzed to determine the specificity, range, and lower limit of quantitation of the method. Plasma and tissue homogenate study samples were extracted and analyzed. All the samples were treated identically to the standards.
One eight-point standard curve was used in each analytical batch. To be accepted, each batch must have had at least five of eight standards with accuracy within ±20% of nominal, except at the lower limit of quantification (LLOQ), where ±25% was acceptable.
Pharmacokinetic parameters were calculated from the time course of the plasma concentration. The maximum plasma concentration (Cmax) and time to the maximum plasma drug concentration (Tmax) were the observed values for each concentration-time profiles. The area under the plasma drug concentration-time curve (AUClast, with last being from time 0 to the last quantifiable point) was calculated using the trapezoidal formula. The mean residence time MRTlast was calculated as a ratio of AUMClast (area under the first movement curve) to AUClast.

[3] = New Zealand White, rabbit, plasma, other: intravitreal, 1.55 mg/kg, plasma, intravitreal 2.5 mg/eye (~1.55 mg/kg), solution
[4] = New Zealand White, rabbit, plasma, other: intravitreal, 2.5 mg, plasma, intravitreal 2.5 mg/eye (~1.55 mg/kg), solution
[5] = New Zealand White, rabbit, plasma, other: intravitreal, 2.5 mg/eye, intravitreal 2.5 mg/eye (~1.55 mg/kg), solution, read-out: plasma Average
[6] = New Zealand White, rabbit, plasma, other: intravitreal, 2.5 mg/eye, intravitreal 2.5 mg/eye (~1.55 mg/kg), solution, read-out: plasma Conc., individual rabbit
[7] = New Zealand White, rabbit, plasma, sc, 5 mg/kg, subcutaneous 5 mg/kg/dose, solution
[8] = New Zealand White, rabbit, plasma, subcutaneous, 5 mg/kg/dose, subcutaneous 5 mg/kg/dose, solution, read-out: plasma Average
[9] = New Zealand White, rabbit, plasma, subcutaneous, 5 mg/kg/dose, subcutaneous 5 mg/kg/dose, solution, read-out: plasma Conc., individual rabbit
[10] = New Zealand White, rabbit, plasma, topical or ocular, 0.7 mg/kg, topical ocular 1.2 mg/eye (~0.7 mg/kg/dose), solution
[11] = New Zealand White, rabbit, plasma, topical or ocular, 1.2 mg, topical ocular 1.2 mg/eye (~0.7 mg/kg/dose), solution
[12] = New Zealand White, rabbit, plasma, topical, 1.2 mg/eye, topical ocular 1.2 mg/eye (~0.7 mg/kg/dose), read-out: plasma Average
[13] = plasma, intravitreal solution, normalized by 1.55 mg/kg
[14] = plasma, subcutaneous solution, normalized by 5 mg/kg
[15] = subcutaneous administration, sodium salt solution

mild conjunctival congestion (scores=1), animals affected ([1]; Group 2, 0.45 mg/eye topical BID, Day 1): all five animals
mild conjunctival congestion (scores=1), animals affected ([1]; Group 2, 0.45 mg/eye topical BID, Day 4): two animals
mild conjunctival congestion (scores=1), animals affected ([1]; Group 3, 1.2 mg/eye topical BID, Day 1): two animals
mild conjunctival congestion (scores=1), animals affected ([1]; Group 3, 1.2 mg/eye topical BID, Day 4): two animals
mild conjunctival congestion (scores=1), animals affected ([1]; Group 4, 1.2 mg/eye topical QD, Day 1): one animal
mild conjunctival congestion (scores=1), animals affected ([1]; Group 4, 1.2 mg/eye topical QD, Day 4): one animal
mild conjunctival congestion (scores=1), animals affected ([1]; Group 5, 10 mg/kg subcutaneous BID, Day 1): three animals
mild conjunctival congestion (scores=1), animals affected ([1]; Group 5, 10 mg/kg subcutaneous BID, Day 4): none
ocular anomalies ([1]; all groups, Day 8): No ocular anomalies
AUC(0-inf) [2, 3]: 956 ng·h/mL
Cmax [2, 3]: 39.8 ng/mL
MRT last [2, 3]: 15.1 h
half-life [2, 3]: 485 min
AUC(0-t) [2, 3]: 953 ng·h/mL
Tmax ([2]; New Zealand White, rabbit, plasma, other: intravitreal, 1.55 mg/kg, plasma, intravitreal 2.5 mg/eye (~1.55 mg/kg), solution, read-out: tmax): 3 h
AUC(0-inf) [2, 4]: 956 ng·h/mL
Cmax [2, 4]: 39.8 ± 2.3 ng/mL
MRT last [2, 4]: 15.1 h
half-life [2, 4]: 485 min
AUC(0-t) [2, 4]: 953 ± 91.1 ng·h/mL
Tmax ([2]; New Zealand White, rabbit, plasma, other: intravitreal, 2.5 mg, plasma, intravitreal 2.5 mg/eye (~1.55 mg/kg), solution, read-out: tmax): 3 h
concentration at 1 h ([2]; New Zealand White, rabbit, plasma, other: intravitreal, 2.5 mg/eye, intravitreal 2.5 mg/eye (~1.55 mg/kg), solution, 1.0 hr, read-out: plasma Average): 32.3 ng/mL
concentration at 1 h ([2]; New Zealand White, rabbit, plasma, other: intravitreal, 2.5 mg/eye, intravitreal 2.5 mg/eye (~1.55 mg/kg), solution, 1.0 hr, read-out: plasma Conc., individual rabbit): 33.2 ng/mL
concentration at 3 h [2, 5]: 39.8 ng/mL
concentration at 3 h [2, 6]: 37.5 ng/mL
concentration at 6 h ([2]; New Zealand White, rabbit, plasma, other: intravitreal, 2.5 mg/eye, intravitreal 2.5 mg/eye (~1.55 mg/kg), solution, 6.0 hr, read-out: plasma Average): 36.8 ng/mL
concentration at 6 hr ([2]; New Zealand White, rabbit, plasma, other: intravitreal, 2.5 mg/eye, intravitreal 2.5 mg/eye (~1.55 mg/kg), solution, 6.0 hr, read-out: plasma Conc., individual rabbit): 44.3 ng/mL
concentration at 24 hr [2, 5]: 16.9 ng/mL
concentration at 24 hr [2, 6]: 19 ng/mL
concentration at 48 hr [2, 5]: 2.58 ng/mL
concentration at 48 hr [2, 6]: 2.7 ng/mL
concentration at 72 hr [2, 5]: 0.27 ng/mL
concentration at 72 hr [2, 6]: 0.215 ng/mL
AUC(0-t) ([2]; New Zealand White, rabbit, plasma, sc, 5 mg/kg, plasma, subcutaneous 5 mg/kg/dose, solution): 1560 ± 195 ng·h/mL
Tmax ([2]; New Zealand White, rabbit, plasma, sc, 5 mg/kg, plasma, subcutaneous 5 mg/kg/dose, solution, read-out: tmax): 0.25 h
Tmax ([2]; New Zealand White, rabbit, plasma, sc, 5 mg/kg, subcutaneous administration, solution, read-out: Mean plasma Tmax (converted)): 0.25 h
AUC(0-inf) [2, 7]: 1560 ng·h/mL
Cmax [2, 7]: 1520 ± 115 ng/mL
MRT last [2, 7]: 0.87 h
half-life [2, 7]: 28.2 min
concentration at 0.25 hr [2, 8]: 1520 ng/mL
concentration at 0.25 hr [2, 9]: 1640 ng/mL
concentration at 0.5 hr [2, 8]: 1100 ng/mL
concentration at 0.5 hr [2, 9]: 883 ng/mL
concentration at 1 hr ([2]; New Zealand White, rabbit, plasma, subcutaneous, 5 mg/kg/dose, subcutaneous 5 mg/kg/dose, solution, 1.0 hr, read-out: plasma Average): 646 ng/mL
concentration at 1 h ([2]; New Zealand White, rabbit, plasma, subcutaneous, 5 mg/kg/dose, subcutaneous 5 mg/kg/dose, solution, 1.0 hr, read-out: plasma Conc., individual rabbit): 664 ng/mL
concentration at 2 h ([2]; New Zealand White, rabbit, plasma, subcutaneous, 5 mg/kg/dose, subcutaneous 5 mg/kg/dose, solution): 180 ng/mL
concentration at 4 h [2, 8]: 7.76 ng/mL
concentration at 4 h [2, 9]: 7.98 ng/mL
AUC(0-t) ([2]; New Zealand White, rabbit, plasma, topical or ocular, 0.7 mg/kg, plasma, topical ocular 1.2 mg/eye (~0.7 mg/kg/dose), solution): 11.8 ng·h/mL
Tmax ([2]; New Zealand White, rabbit, plasma, topical or ocular, 0.7 mg/kg, plasma, topical ocular 1.2 mg/eye (~0.7 mg/kg/dose), solution, read-out: tmax): 4 h
Cmax [2, 10]: 7.48 ng/mL
MRT last [2, 10]: 2.98 h
AUC(0-t) ([2]; New Zealand White, rabbit, plasma, topical or ocular, 1.2 mg, plasma, topical ocular 1.2 mg/eye (~0.7 mg/kg/dose), solution): 11.8 ± 5.7 ng·h/mL
Tmax ([2]; New Zealand White, rabbit, plasma, topical or ocular, 1.2 mg, plasma, topical ocular 1.2 mg/eye (~0.7 mg/kg/dose), solution, read-out: tmax): 4 h
Cmax [2, 11]: 7.48 ± 5.53 ng/mL
MRT last [2, 11]: 2.98 h
concentration at 0.5 h [2, 12]: 3.03 ng/mL
concentration at 0.5 h ([2]; New Zealand White, rabbit, plasma, topical, 1.2 mg/eye, topical ocular 1.2 mg/eye (~0.7 mg/kg/dose), read-out: plasma Conc., individual rabbit): 3.84 ng/mL
concentration at 1 h ([2]; New Zealand White, rabbit, plasma, topical, 1.2 mg/eye, topical ocular 1.2 mg/eye (~0.7 mg/kg/dose), 1.0 hr, read-out: plasma Average): 1.46 ng/mL
concentration at 1 h ([2]; New Zealand White, rabbit, plasma, topical, 1.2 mg/eye, topical ocular 1.2 mg/eye (~0.7 mg/kg/dose), 1.0 hr, read-out: plasma Conc., individual rabbit): 1.28 ng/mL
concentration at 2 h ([2]; New Zealand White, rabbit, plasma, topical, 1.2 mg/eye, topical ocular 1.2 mg/eye (~0.7 mg/kg/dose)): 1.14 ng/mL
concentration at 4 h [2, 12]: 7.48 ng/mL
Mean plasma Cmax, fold higher than Compound 1 (free acid) suspension ([2]; intravitreal administration, sodium salt solution): approximately 2 fold
Dose normalized AUClast [2, 13]: 615 kg·ng·h/mL/mg
Dose normalized AUC∞ [2, 13]: 617 kg·ng·h/mL/mg
Dose normalized AUClast ([2]; plasma, intravitreal solution, normalized by 1.55 mg/kg, listed as Compound 1 (sodium salt)): 615 ± 58.8 kg·ng·h/mL/mg
Dose normalized AUClast [2, 14]: 311 kg·ng·h/mL/mg
Dose normalized AUC∞ [2, 14]: 312 kg·ng·h/mL/mg
Dose normalized AUClast ([2]; plasma, subcutaneous solution, normalized by 5 mg/kg, listed as Compound 1 (sodium salt)): 311 ± 38.9 kg·ng·h/mL/mg
Dose normalized AUClast ([2]; plasma, topical ocular, normalized by 0.7 mg/kg): 16.8 kg·ng·h/mL/mg
Dose normalized AUClast ([2]; plasma, topical ocular, normalized by 0.7 mg/kg, listed as Compound 1 (sodium salt)): 16.8 ± 8.15 kg·ng·h/mL/mg
Mean plasma AUClast, fold higher than Compound 1 (free acid) suspension [2, 15]: approximately 2 fold
Mean plasma Cmax, fold higher than Compound 1 (free acid) suspension [2, 15]: approximately 3 fold
Compound: COC(=O)N[C@@H](Cc1ccccc1)C(=O)N[C@@H](Cc1ccc(NS(=O)(=O)O)cc1)c1csc(-c2cccs2)n1 [Compound 1 sodium salt]
relation of mild conjunctival congestion to the test article ([1]; repeated topical and subcutaneous dosing): appeared to be unrelated to the test article
